From patent publication US12077503B2, “Substituted cyclic amides and their use as herbicides” (FMC CORPORATION, priority 2015, dated 2024)
Like-named read-outs stand apart in the source and are kept apart here.

Experiments:
Type in all cases: in vivo
[1] = test system: Kochia (Kochia scoparia); assay: Test A preemergence; conditions: Bassia scoparia, pre-emergence, 240 h; for pest or weed control at 125 g/ha: 125 g ai/ha; for pest or weed control at 500 g/ha: 500 g ai/ha
Outline: (§1)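 Seeds sprayed preemergence with a directed soil spray, or plants at 2 to 10 cm height and one- to two-leaf stage sprayed postemergence, with test chemicals in a non-phytotoxic solvent mixture containing surfactant, in loam soil–sand blend. Injury rated visually against untreated controls after about 10 d in greenhouse, 0 (no effect) to 100 (complete control).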

[2] = test system: ryegrass, Italian (Italian ryegrass, Lolium multiflorum); assay: Test A preemergence; conditions: Lolium multiflorum, pre-emergence, 240 h; for pest or weed control at 125 g/ha: 125 g ai/ha; for pest or weed control at 500 g/ha: 500 g ai/ha
Outline: as §1

[3] = test system: pigweed (Amaranthus retroflexus); assay: Test A preemergence; conditions: Amaranthus retroflexus, pre-emergence, 240 h; for pest or weed control at 125 g/ha: 125 g ai/ha; for pest or weed control at 500 g/ha: 500 g ai/ha
[4] = test system: giant foxtail (Setaria faberii); assay: Test A preemergence; conditions: Setaria faberi, pre-emergence, 240 h; for pest or weed control at 125 g/ha: 125 g ai/ha; for pest or weed control at 500 g/ha: 500 g ai/ha
Outline: as §1

[5] = test system: barnyardgrass (Echinochloa crus-galli); assay: Test A preemergence; conditions: Echinochloa crus-galli, pre-emergence, 240 h; for pest or weed control at 125 g/ha: 125 g ai/ha; for pest or weed control at 500 g/ha: 500 g ai/ha
Outline: as §1

[6] = test system: ragweed (common ragweed, Ambrosia elatior); assay: Test A preemergence; conditions: Ambrosia artemisiifolia, pre-emergence, 240 h; for pest or weed control at 125 g/ha: 125 g ai/ha; for pest or weed control at 500 g/ha: 500 g ai/ha
Outline: as §1

[7] = test system: Kochia (Kochia scoparia); assay: Test A postemergence; conditions: Bassia scoparia, post-emergence, 240 h; for pest or weed control at 125 g/ha: 125 g ai/ha
Outline: as §1

[8] = test system: ryegrass, Italian (Italian ryegrass, Lolium multiflorum); assay: Test A postemergence; conditions: Lolium multiflorum, post-emergence, 240 h; for pest or weed control at 125 g/ha: 125 g ai/ha
Outline: as §1

[9] = test system: pigweed (Amaranthus retroflexus); assay: Test A postemergence; conditions: Amaranthus retroflexus, post-emergence, 240 h; for pest or weed control at 125 g/ha: 125 g ai/ha
Outline: as §1

[10] = test system: giant foxtail (Setaria faberii); assay: Test A postemergence; conditions: Setaria faberi, post-emergence, 240 h; for pest or weed control at 125 g/ha: 125 g ai/ha
Outline: as §1

[11] = test system: ducksalad (Heteranthera limosa); assay: Test B flooded paddy test; conditions: Heteranthera limosa, Flood, 250 g ai/ha
Outline: (§2)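 Greenhouse paddy pots with 2-leaf stage plants received compound by direct addition to floodwater 3 cm deep, kept at that level. Scored visually at 13–15 d versus controls (0 no effect; 100 complete control).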

[12] = test system: barnyardgrass (Echinochloa crus-galli); assay: Test B flooded paddy test; conditions: Echinochloa crus-galli, Flood, 250 g ai/ha
Outline: as §2

[13] = test system: sedge, umbrella (small-flower umbrella sedge, Cyperus difformis); assay: Test B flooded paddy test; conditions: Cyperus difformis, Flood, 250 g ai/ha
Outline: as §2

[14] = test system: rice (Oryra sativa); assay: Test B flooded paddy test; conditions: Oryza sativa, Flood, 250 g ai/ha
Outline: as §2

[15] = preemergence, visual rating after approx. 10 d, 0 to 100 scale where 0 is no effect and 100 is complete control, read-out: Plant response rating, Kochia
[16] = Preemergence, visual injury vs untreated controls after approximately 10 d, read-out: Kochia plant response rating (0 to 100 scale where 0 is no effect and 100 is complete control)
[17] = preemergence, visual rating after approx. 10 d, 0 to 100 scale where 0 is no effect and 100 is complete control, read-out: Plant response rating, Ryegrass, Italian
[18] = Preemergence, visual injury vs untreated controls after approximately 10 d, read-out: Ryegrass, Italian plant response rating (0 to 100 scale where 0 is no effect and 100 is complete control)
[19] = preemergence, visual rating after approx. 10 d, 0 to 100 scale where 0 is no effect and 100 is complete control, read-out: Plant response rating, Pigweed
[20] = Preemergence, visual injury vs untreated controls after approximately 10 d, read-out: Pigweed plant response rating (0 to 100 scale where 0 is no effect and 100 is complete control)
[21] = preemergence, visual rating after approx. 10 d, 0 to 100 scale where 0 is no effect and 100 is complete control, read-out: Plant response rating, Foxtail, Giant
[22] = Preemergence, visual injury vs untreated controls after approximately 10 d, read-out: Foxtail, Giant plant response rating (0 to 100 scale where 0 is no effect and 100 is complete control)
[23] = preemergence, visual rating after approx. 10 d, 0 to 100 scale where 0 is no effect and 100 is complete control, read-out: Plant response rating, Barnyardgrass
[24] = Preemergence, visual injury vs untreated controls after approximately 10 d, read-out: Barnyardgrass plant response rating (0 to 100 scale where 0 is no effect and 100 is complete control)
[25] = preemergence, visual rating after approx. 10 d, 0 to 100 scale where 0 is no effect and 100 is complete control, read-out: Plant response rating, Ragweed
[26] = Preemergence, visual injury vs untreated controls after approximately 10 d, read-out: Ragweed plant response rating (0 to 100 scale where 0 is no effect and 100 is complete control)
[27] = postemergence, visual injury after approximately 10 d, 0 to 100 scale (0 no effect, 100 complete control), read-out: Plant response rating, Kochia
[28] = postemergence, visual injury after approximately 10 d, 0 to 100 scale (0 no effect, 100 complete control), read-out: Plant response rating, Ryegrass, Italian
[29] = postemergence, visual injury after approximately 10 d, 0 to 100 scale (0 no effect, 100 complete control), read-out: Plant response rating, Pigweed
[30] = postemergence, visual injury after approximately 10 d, 0 to 100 scale (0 no effect, 100 complete control), read-out: Plant response rating, Foxtail, Giant
[31] = scale of 0 to 100 where 0 is no effect and 100 is complete control, read-out: Ducksalad plant response rating
[32] = scale of 0 to 100 where 0 is no effect and 100 is complete control, read-out: Barnyardgrass plant response rating
[33] = scale of 0 to 100 where 0 is no effect and 100 is complete control, read-out: Sedge, Umbrella plant response rating
[34] = scale of 0 to 100 where 0 is no effect and 100 is complete control, read-out: Rice plant response rating

CN1C[C@H](c2ccc(C#N)cc2)[C@@H](C(=O)Nc2cccc(F)c2F)C1=O (racemic) [Compound 775]
pest or weed control at 125 g/ha [1, 15]: 30%
pest or weed control at 500 g/ha [1, 16]: 80%
pest or weed control at 125 g/ha [2, 17]: 0%
pest or weed control at 500 g/ha [2, 18]: 0%
pest or weed control at 125 g/ha [3, 19]: 30%
pest or weed control at 500 g/ha [3, 20]: 70%
pest or weed control at 125 g/ha [4, 21]: 80%
pest or weed control at 500 g/ha [4, 22]: 100%
pest or weed control at 125 g/ha [5, 23]: 60%
pest or weed control at 500 g/ha [5, 24]: 100%
pest or weed control at 125 g/ha [6, 25]: 50%
pest or weed control at 500 g/ha [6, 26]: 80%
pest or weed control at 125 g/ha [7, 27]: 40%
pest or weed control at 125 g/ha [8, 28]: 20%
pest or weed control at 125 g/ha [9, 29]: 0%
pest or weed control at 125 g/ha [10, 30]: 60%
pest or weed control at 250 g/ha [11, 31]: 75%
pest or weed control at 250 g/ha [12, 32]: 35%
pest or weed control at 250 g/ha [13, 33]: 65%
pest or weed control at 250 g/ha [14, 34]: 0%

CN1C[C@H](c2cccc(S(C)(=O)=O)c2)[C@@H](C(=O)Nc2cccc(F)c2F)C1=O (racemic) [Compound 777]
pest or weed control at 125 g/ha [1, 15]: 0%
pest or weed control at 500 g/ha [1, 16]: 0%
pest or weed control at 125 g/ha [2, 17]: 40%
pest or weed control at 500 g/ha [2, 18]: 70%
pest or weed control at 125 g/ha [3, 19]: 0%
pest or weed control at 500 g/ha [3, 20]: 40%
pest or weed control at 125 g/ha [4, 21]: 80%
pest or weed control at 500 g/ha [4, 22]: 100%
pest or weed control at 125 g/ha [5, 23]: 70%
pest or weed control at 500 g/ha [5, 24]: 100%
pest or weed control at 125 g/ha [6, 25]: 0%
pest or weed control at 500 g/ha [6, 26]: 0%
pest or weed control at 125 g/ha [7, 27]: 0%
pest or weed control at 125 g/ha [8, 28]: 0%
pest or weed control at 125 g/ha [9, 29]: 0%
pest or weed control at 125 g/ha [10, 30]: 30%
pest or weed control at 250 g/ha [11, 31]: 0%
pest or weed control at 250 g/ha [12, 32]: 30%
pest or weed control at 250 g/ha [13, 33]: 0%
pest or weed control at 250 g/ha [14, 34]: 20%

CO[C@]1(C(=O)Nc2cccc(F)c2F)C(=O)N(C)C[C@@H]1c1ccc(C(F)(F)F)cc1 (racemic) [Compound 1334]
pest or weed control at 500 g/ha ([1]; preemergence, 0 to 100 scale (0 no effect, 100 complete control), read-out: Plant response rating, Kochia): 20%
pest or weed control at 125 g/ha ([1]; Preemergence, 0 to 100 scale (0 no effect, 100 complete control), read-out: Plant response rating, Kochia): 0%
pest or weed control at 500 g/ha ([2]; preemergence, 0 to 100 scale (0 no effect, 100 complete control), read-out: Plant response rating, Ryegrass, Italian): 20%
pest or weed control at 125 g/ha ([2]; Preemergence, 0 to 100 scale (0 no effect, 100 complete control), read-out: Plant response rating, Ryegrass, Italian): 0%
pest or weed control at 500 g/ha ([3]; preemergence, 0 to 100 scale (0 no effect, 100 complete control), read-out: Plant response rating, Pigweed): 30%
pest or weed control at 125 g/ha ([3]; Preemergence, 0 to 100 scale (0 no effect, 100 complete control), read-out: Plant response rating, Pigweed): 20%
pest or weed control at 500 g/ha ([4]; preemergence, 0 to 100 scale (0 no effect, 100 complete control), read-out: Plant response rating, Foxtail, Giant): 80%
pest or weed control at 125 g/ha ([4]; Preemergence, 0 to 100 scale (0 no effect, 100 complete control), read-out: Plant response rating, Foxtail, Giant): 40%
pest or weed control at 500 g/ha ([5]; preemergence, 0 to 100 scale (0 no effect, 100 complete control), read-out: Plant response rating, Barnyardgrass): 80%
pest or weed control at 125 g/ha ([5]; Preemergence, 0 to 100 scale (0 no effect, 100 complete control), read-out: Plant response rating, Barnyardgrass): 20%
pest or weed control at 500 g/ha ([6]; preemergence, 0 to 100 scale (0 no effect, 100 complete control), read-out: Plant response rating, Ragweed): 30%
pest or weed control at 125 g/ha ([6]; Preemergence, 0 to 100 scale (0 no effect, 100 complete control), read-out: Plant response rating, Ragweed): 0%
pest or weed control at 125 g/ha ([7]; Postemergence, visual rating about 10 d after treatment, read-out: Kochia plant response rating (0 to 100 scale)): 0%
pest or weed control at 500 g/ha ([7]; Postemergence, 500 g ai/ha, visual injury, 0 to 100 scale (0 no effect, 100 complete control), approx. 10 d, read-out: Plant response rating, Kochia): 0%
pest or weed control at 125 g/ha ([8]; Postemergence, visual rating about 10 d after treatment, read-out: Ryegrass, Italian plant response rating (0 to 100 scale)): 0%
pest or weed control at 500 g/ha ([8]; Postemergence, 500 g ai/ha, visual injury, 0 to 100 scale (0 no effect, 100 complete control), approx. 10 d, read-out: Plant response rating, Ryegrass, Italian): 20%
pest or weed control at 125 g/ha ([9]; Postemergence, visual rating about 10 d after treatment, read-out: Pigweed plant response rating (0 to 100 scale)): 30%
pest or weed control at 500 g/ha ([9]; Postemergence, 500 g ai/ha, visual injury, 0 to 100 scale (0 no effect, 100 complete control), approx. 10 d, read-out: Plant response rating, Pigweed): 40%
pest or weed control at 125 g/ha ([10]; Postemergence, visual rating about 10 d after treatment, read-out: Foxtail, Giant plant response rating (0 to 100 scale)): 0%
pest or weed control at 500 g/ha ([10]; Postemergence, 500 g ai/ha, visual injury, 0 to 100 scale (0 no effect, 100 complete control), approx. 10 d, read-out: Plant response rating, Foxtail, Giant): 50%
pest or weed control at 250 g/ha ([11]; 360 h, visually evaluated after 13 to 15 d, read-out: Plant response rating, Ducksalad (0 to 100 scale where 0 is no effect and 100 is complete control)): 90%
pest or weed control at 250 g/ha ([12]; 360 h, visually evaluated after 13 to 15 d, read-out: Plant response rating, Barnyardgrass (0 to 100 scale where 0 is no effect and 100 is complete control)): 0%
pest or weed control at 250 g/ha ([13]; 360 h, visually evaluated after 13 to 15 d, read-out: Plant response rating, Sedge, Umbrella (0 to 100 scale where 0 is no effect and 100 is complete control)): 0%
pest or weed control at 250 g/ha ([14]; 360 h, visually evaluated after 13 to 15 d, read-out: Plant response rating, Rice (0 to 100 scale where 0 is no effect and 100 is complete control)): 0%
